Square brackets hold non-standard residues; d marks the D form. Peptide text beside a SMILES is read from it.
Assay: Time-course stability in 25% human serum by LC-MS
Assay type: in vitro ADME
Settings: 25% human serum in RPMI media (165 mM MOPS, pH 7.0), 50 μg/ml peptide, 37°C water bath, precipitation with 1% formic acid in ethanol, LC-MS/MS (MRM), internal standard AMP 1018, mean ± SD, n = 3
Method: After parameters were optimized to reduce peptide loss during sample processing, the extent of AMP degradation by proteases in human serum was determined via a time-course experiment. Kn2-7 or dKn2-7 (50 μg/ml final concentration) was mixed with RPMI media alone or RPMI containing 25% human serum and incubated at 37°C in a water bath for up to 24 h. At predetermined time points (t = 0, 0.5, 1, 2, 3, 4 and 24 h), a 200 μl aliquot of each sample was collected and mixed with 400 μl of 1% formic acid in ethanol. Samples were incubated on ice for 15 min and centrifuged at 18,000 g for 10 min. Supernatants were transferred to fresh 500 μl tubes and stored at -20°C.
Samples were diluted eight-times with 3% ACN and 0.1% formic acid in water and spiked with internal standard AMP 1018 [15, 16] at 1 μg/ml immediately before LC–MS analysis. A 10 μl aliquot of each sample was analyzed using an Agilent ZORBAX Eclipse XDB 80Å C18 column (2.1 × 50 mm, 5 μm, Agilent, CA, USA) and a Shimadzu LC-20AD system (Shimadzu Corporation, Kyoto, Japan) coupled with a SCIEX API 4000 triple quadrupole mass spectrometer (AB Sciex, MA, USA). […]
MS was conducted in multiple reaction monitoring and positive electrospray ionization mode. […] AMPs Kn2-7/dKn2-7 and 1018 were quantified with the most abundant multiple reaction monitoring transitions m/z 558.7/120.2 and 385.18/239.1, respectively. […]

Row | Structure (SMILES) | peptide remaining at 24 h relative to the starting concentration (amount in 0 h sample)
1 | CC[C@@H](C)[C@@H](NC(=O)[C@H](N)Cc1ccccc1)C(=O)N[C@H](CCCCN)C(=O)N[C@H](CCCNC(=N)N)C(=O)N[C@@H](C(=O)N[C@H](C)C(=O)N[C@H](CCCNC(=N)N)C(=O)N[C@H](CC(C)C)C(=O)N[C@H](CC(C)C)C(=O)N[C@H](CCCNC(=N)N)C(=O)N[C@H](CCCCN)C(=O)N[C@@H](C(=O)N[C@H](Cc1ccccc1)C(=O)O)[C@H](C)CC)[C@H](C)CC [dKn2-7] (H-[dF][dI][dK][dR][dI][dA][dR][dL][dL][dR][dK][dI][dF]-OH) | 78.5% ± 2.7%
2 | CC[C@H](C)[C@H](NC(=O)[C@H](CCCNC(=N)N)NC(=O)[C@H](CCCCN)NC(=O)[C@@H](NC(=O)[C@@H](N)Cc1ccccc1)[C@@H](C)CC)C(=O)N[C@@H](C)C(=O)N[C@@H](CCCNC(=N)N)C(=O)N[C@@H](CC(C)C)C(=O)N[C@@H](CC(C)C)C(=O)N[C@@H](CCCNC(=N)N)C(=O)N[C@@H](CCCCN)C(=O)N[C@H](C(=O)N[C@@H](Cc1ccccc1)C(=O)O)[C@@H](C)CC [Kn2-7] (H-FIKRIARLLRKIF-OH) | 1.0% ± 0.4%
